Entries after “also recorded” stand apart in the source; their conditions may differ.
Columns and labels:
[1] = test system: EMX1 locus in HEK293T cells; assay: NHEJ frequency by T7 endonuclease I assay, EMX1 locus, HEK293T cells; type: cell-based, human; conditions: for NHEJ frequency: nocodazole-treated cells (200 ng/ml, 17 h), 50-200 ρmol template 1
Description: (§1) For EMX1: forward [NT] ID NO:1404) and [NT] NO:1405). For DYRK1: forward [NT] ID NO:1406) and reverse [NT] NO:1407).

[2] = test system: EMX1 locus in HEK293T cells; assay: HDR frequency by HindIII digestion, EMX1 locus, HEK293T cells; type: cell-based, human; conditions: for HDR efficiency: 50-200 ρmol template 1
Description: as §1

human ES cells = assay: Cell viability of human ES cells during synchronization; type: cell-based; conditions: hES cells; aphidicolin treatment after nocodazole, at 10 h
[3] = test system: DYRK1 locus in HEK293T cells; assay: NHEJ frequency by T7 endonuclease I assay, DYRK1 locus, HEK293T cells; type: cell-based, human; conditions: for NHEJ frequency: nocodazole synchronized cells
[4] = test system: DYRK1 locus in HEK293T cells; assay: HDR frequency by HindIII digestion, DYRK1 locus, HEK293T cells; type: cell-based, human; conditions: for HDR frequency: nocodazole synchronized cells
[5] = test system: EMX1 locus in human embryonic stem cells (hES); assay: NHEJ frequency by T7 endonuclease I assay, EMX1 locus, human ES cells; type: cell-based; conditions: nocodazole synchronization (16 h), 100 ρmol template 4
[6] = test system: EMX1 locus in human embryonic stem cells (hES); assay: HDR frequency by HindIII digestion, EMX1 locus, human ES cells; type: cell-based; conditions: nocodazole synchronization (16 h), 30 or 100 ρmol Cas9 RNP, template 4
HEK293T cells = assay: FACS analysis of DNA content / cell cycle; type: cell-based, human; conditions: nocodazole-treated vs untreated cells
Description: The first objective was to test whether S phase was ideal for HDR in HEK293T cells. The approach was to chemically and reversibly synchronize the cells at G1, S and M phases (FIG. 1A). Lovastatin blocks at early G1 and partially at G2/M phase, by inhibiting HMG-CoA reductase and resulting in the depletion of mevalonate, which is an essential substrate for cholesterol synthesis. Mimosine arrests cells at the G1-S border prior to onset of DNA replication by an unknown mechanism. […] Excess thymidine causes feedback inhibition of deoxycytosine synthesis. Hydroxyurea blocks cells at S phase by decreasing the production of deoxyribonucleotide via inhibition of the enzyme ribonucleotide reductase. Nocodazole inhibits microtubule polymerization which is a signature structural feature as cells enter mitosis, causing arrest at G2/M phase. The drugs effects were confirmed by fluorescence activated cell sorter (FACS) analysis of the cell cycle (FIG. 1B).
FIG. 1A-1D depict the effect of cell cycle synchronization on NHEJ and HDR frequencies in HEK293T cells. (A) Chemical inhibitors were used to arrest cells at specific phases of cell cycle. Lovastatin (Lov) blocks cells in G1 phase by inhibiting cholesterol synthesis. […] The mean % NHEJ/HDR and standard deviation (error bars) were calculated from three experiments.

[7] = 30 ρmol of Cas9, 100 ρmol template 1
[8] = inhibitor-synchronized cells, 30 ρmol of Cas9, 100 ρmol template 1
[9] = 30 and 100 ρmol Cas9 RNP, 100 ρmol HDR template 1, inhibitor synchronization before nucleofection
[10] = all doses of Cas9 RNP, vs unsynchronized
[11] = 100 ρmol of Cas9, 100 ρmol template 1
[12] = nocodazole synchronization, 30 ρmol Cas9 RNP, 50 ρmol HDR template

Molecule: C[C@@]1(CO)[C@H](O)CC[C@@]2(C)[C@H]1CC[C@H]1C[C@@H]3C[C@@]12CC[C@]3(O)CO [aphidicolin]
- NHEJ frequency compared to the unsynchronized cells [1, 7]: increased the NHEJ frequency slightly
- HDR frequency [2, 8]: 15%
- HDR frequency with aphidicolin block ([2]; nocodazole synchronized, aphidicolin 2 μg/ml added to media immediately after nucleofection, 30 ρmol Cas9 RNP, 50 ρmol template): significantly reduced
- Cell viability (human ES cells): substantial drop in cell viability

Molecule: NC(=O)NO [hydroxyurea]
- NHEJ frequency compared to the unsynchronized cells [1, 9]: greatly decreased
- HDR frequency compared to the unsynchronized cells [2, 9]: greatly decreased

Molecule: CC[C@H](C)C(=O)O[C@H]1C[C@@H](C)C=C2C=C[C@H](C)[C@H](CC[C@@H]3C[C@@H](O)CC(=O)O3)[C@H]21 [lovastatin]
- NHEJ frequency compared to the unsynchronized cells [1, 9]: greatly decreased
- HDR frequency compared to the unsynchronized cells [2, 9]: greatly decreased

Molecule: NC(Cn1ccc(=O)c(O)c1)C(=O)O (centres unmarked) [mimosine]
- NHEJ frequency compared to the unsynchronized cells [1, 9]: greatly decreased
- HDR frequency compared to the unsynchronized cells [2, 9]: greatly decreased

Molecule: COC(=O)Nc1nc2ccc(C(=O)c3cccs3)cc2[nH]1 [nocodazole]
- NHEJ frequency compared to the unsynchronized cells [1, 7]: increased the NHEJ frequency slightly
- Increase of NHEJ frequency by synchronization ([1]; nocodazole vs unsynchronized, 10 ρmol Cas9 RNP): two-fold
- Increase of NHEJ frequency by synchronization ([1]; nocodazole vs unsynchronized, 30 ρmol Cas9 RNP): 1.5 fold
- Enhancement of NHEJ frequency by synchronization ([1]; nocodazole vs unsynchronized, 100 ρmol Cas9 RNP): diminished
- NHEJ frequency ([1]; 10 ρmol Cas9 RNP): 15-17%
- NHEJ frequency ([1]; 30 ρmol Cas9 RNP): 35-37%
- NHEJ frequency ([1]; 100 ρmol Cas9 RNP): 46-49%
- HDR frequency relative to the unsynchronized cells ([2]; 30 ρmol Cas9 RNP, 50 ρmol HDR template (templates 1-7)): overall higher HDR frequency
- HDR frequency [2, 8]: 19%
- HDR efficiency ([2]; nocodazole synchronization, 10 ρmol Cas9 RNP): 9-15%
- HDR efficiency ([2]; nocodazole synchronization, 30 ρmol Cas9 RNP): 22-28%
- HDR efficiency ([2]; nocodazole synchronization, 100 ρmol Cas9 RNP): 24-32%
- Highest HDR frequency (representative gel of triplicate experiment) ([2]; nocodazole synchronization, 100 ρmol of Cas9, 100 ρmol template 1): 31%
- Enhancement of NHEJ frequency by nocodazole synchronization [3, 10]: more than two-fold
- NHEJ frequency ([3]; 10 ρmol Cas9 RNP): 20-24%
- NHEJ frequency ([3]; 30 ρmol Cas9 RNP): 45-47%
- NHEJ frequency ([3]; 100 ρmol Cas9 RNP): 63-65%
- Enhancement of HDR frequency by nocodazole synchronization [4, 10]: over six-fold
- HDR frequency ([4]; 10 ρmol Cas9 RNP): 5-6%
- HDR frequency ([4]; 30 ρmol Cas9 RNP): 12-17%
- HDR frequency ([4]; 100 ρmol Cas9 RNP): 24-25%
- NHEJ frequency ([5]; 30 ρmol Cas9 RNP): 9%
- NHEJ frequency ([5]; 100 ρmol Cas9 RNP): 28-31%
- HDR events [6]: no HDR event was detected
- Enrichment of cells arrested at M phase (DNA content, FACS) (HEK293T cells): two-fold enrichment; also recorded: three-fold enrichment

Molecule: Cc1cn([C@H]2C[C@H](O)[C@@H](CO)O2)c(=O)[nH]c1=O [thymidine]
- NHEJ frequency compared to the unsynchronized cells [1, 7]: slightly reduced
- NHEJ frequency compared to the unsynchronized cells (reduced or not) [1, 11]: not
- HDR frequency compared to the unsynchronized cells [2, 7]: slightly reduced
- HDR frequency compared to the unsynchronized cells (reduced or not) [2, 11]: not

Molecule: template 1: 183-nt single-strand DNA oligonucleotide HDR donor encoding a HindIII site, 90-nt and 55-nt asymmetrical homology arms (DNA CCACCGCTACGAAGCTTGTCATTGGAGGTGACATCGATGTCCTC; single-stranded DNA HDR donor oligonucleotide, chemistry not given here)
- HDR frequency compared between templates ([2]; 30 ρmol Cas9 RNP, 50 ρmol HDR template): lower HDR frequency than template 3

Molecule: template 2: single-stranded oligonucleotide HDR template with HindIII and BamHI sites, 30-nt homology arms (DNA GGATCCAAGCTT; single-stranded DNA HDR donor oligonucleotide, chemistry not given here)
- HDR frequency [2, 12]: 5%

Molecule: template 3: single-stranded oligonucleotide HDR template with HindIII and BamHI sites, 60-nt homology arms (DNA GGATCCAAGCTT; single-stranded DNA HDR donor oligonucleotide, chemistry not given here)
- HDR frequency [2, 12]: 19%
- Increase of HDR frequency on extending homology arms from 30 nt to 60 nt ([2]; nocodazole synchronization, vs template 2): four-fold

Molecule: template 4: single-stranded HDR template, 90-nt homology arms, complementary orientation (DNA GGATCCAAGCTT; single-stranded DNA HDR donor oligonucleotide, chemistry not given here)
- HDR frequency [2, 12]: 23%

Molecule: template 6: double-stranded HDR template PCR amplified from single-stranded template 5 (sense AAGCTTGGATCC; antisense GGATCCAAGCTT; DNA, phosphodiester; double-stranded PCR-amplified HDR donor)
- HDR frequency [2, 12]: ~7%

Molecule: template 7: double-stranded HDR template assembled from two fragments by overlapping PCR of HEK293T genomic DNA (sense AAGCTTGGATCC; antisense GGATCCAAGCTT; DNA, phosphodiester; double-stranded HDR donor assembled by overlapping PCR)
- HDR frequency [2, 12]: ~7%

B1: template 5: single-stranded HDR template, 90-nt homology arms, non-complementary orientation (SEQ ID NO:1397) (nucleic acid)
DNA: TGGCCAGGGAGTGGCCAGAGTCCAGCTTGGGCCCACGCAGGGGCCTGGCCAGCAGCAAGCAGCACTCTGCCCTCGTGGGTTTGTGGTTGCGGATCCAAGCTTTTGGAGGTGACATCGATGTCCTCCCCATTGGCCTGCTTCGTGGCAATGCGCCACCGGTTGATGTGATGGGAGCCCTTCTTCTTCTGCTCG
modifications: Synthetic nucleic acid sequence
- HDR frequency [2, 12]: 20%
